ChEMBL document CHEMBL4433202, “Design and development of multitarget-directed N-Benzylpiperidine analogs as potential candidates for the treatment of Alzheimer's disease” (Eur J Med Chem, 2019)
Calls of active or inactive are those of the source. The calls are words filed in the database; no cut-off is given here.

Key:
Acetylcholinesterase [1] = molecular target: T1, Acetylcholinesterase (Homo sapiens, UniProt P22303); experiment: Inhibition of human erythrocyte acetylcholinesterase using acetylthiocholine iodide as substrate pre-incubated for 10 mins followed by substrate addition and measured for 6 mins by Ellman's method
Cholinesterase = Cholinesterase (Homo sapiens, UniProt P06276); experiment: Inhibition of human serum butyrylcholinesterase using BTCI as substrate pre-incubated for 10 mins followed by substrate addition and measured for 6 mins by Ellman's method
Beta-secretase 1 = Beta-secretase 1 (Homo sapiens, UniProt P56817); experiment: Inhibition of human BACE1 using as 7-Methoxycoumarin-4-acetyl-[Asn670, Leu671]-Amyloid beta/A4 precursor protein 770 fragment 667-676-(2,4-dinitrophenyl) Lys-Arg-Arg amide trifluoroacetate salt as substrate incubated for 2 hrs by FRET based florescence assay
Rattus norvegicus [2] = experiment: Antioxidant activity Wistar rat model of scopolamine-induced amnesia assessed as reduction in MDA levels in brain homogenates at 10 mg/kg, po by TBARS assay; assay type: functional, organism-based
Acetylcholinesterase [3] = molecular target: T1, Acetylcholinesterase; experiment: Non-competitive inhibition of human erythrocyte AChE using acetylthiocholine iodide as substrate preincubated for 10 mins followed by substrate addition and measured for 6 mins by Lineweaver-Burk plot analysis
Acetylcholinesterase [4] = molecular target: T1, Acetylcholinesterase; experiment: Non-competitive inhibition of human erythrocyte AChE using acetylthiocholine iodide as substrate preincubated for 10 mins followed by substrate addition and measured for 6 mins by Dixon plot analysis
[5] = Permeability of the compound at 25 ug/ml after 18 hrs by PAMPA-BBB assay
[6] = molecular target: Amyloid-beta precursor protein (Homo sapiens) (UniProt P05067); experiment: Inhibition of amyloid beta 1 to 42 (unknown origin) aggregation assessed as oligomer height at 10 uM incubated for 7 days by AFM analysis
[7] = molecular target: Amyloid-beta precursor protein (Homo sapiens) (UniProt P05067); experiment: Inhibition of amyloid beta 1 to 42 (unknown origin) aggregation assessed as roughness index at 10 uM incubated for 7 days by AFM analysis
[8] = Cytotoxicity against human SH-SY5Y cells assessed as cell viability at 10 to 80 uM after 48 hrs by MTT assay relative to control; assay type: cell-based; conditions: read-out: Activity
[9] = Acute toxicity in Wistar rat assessed as induction of abnormal reactions at 100 to 500 mg/kg, po measured up to 14 days; assay type: organism-based; conditions: in vivo, 336 h
Rattus norvegicus [10] = experiment: Cognitive enhancing effect in Wistar rat model of amyloid beta (1 to 42) oligomer-induced memory impairment model assessed as escape latency time at 5 mg/kg, po for 9 days by Morris water maze test (reference value: 49.3 to 74 secs); assay type: functional
Rattus norvegicus [11] = experiment: Reversal of scopolamine-induced spatial memory impairment in Wistar rat model of amnesia assessed as decrease in transfer latency at 2.5 to 10 mg/kg, po administered once daily for 1 week followed by scopolamine challenge 30 mins prior to test by elevated plus maze test; assay type: functional, organism-based
Rattus norvegicus [12] = experiment: Reversal of scopolamine-induced spatial memory impairment in Wistar rat model of amnesia assessed as decrease in time spent on open arms at 2.5 to 10 mg/kg, po administered once daily for 1 week followed by scopolamine challenge 30 mins prior to test by elevated plus maze test; assay type: functional, organism-based
Rattus norvegicus [13] = experiment: Reversal of scopolamine-induced spatial memory impairment in Wistar rat model of amnesia assessed as increase in spontaneous alteration at 10 mg/kg, po administered once daily for 1 week followed by scopolamine challenge 30 mins prior to test by Y-maze test relative to control; assay type: functional, organism-based
Rattus norvegicus [14] = experiment: In-vivo inhibition of scopolamine-induced acetylcholinesterase activity in Wistar rat brain homogenates using acetylthiocholine iodide as substrate at 10 mg/kg, po and measured for 6 mins by Ellman's method; assay type: functional, organism-based
Rattus norvegicus [15] = experiment: Antioxidant activity Wistar rat model of scopolamine-induced amnesia assessed as increase in SOD levels in brain homogenates at 10 mg/kg, po by NBT dye based assay; assay type: functional, organism-based
Rattus norvegicus [16] = experiment: Cognitive enhancing effect in Wistar rat model of amyloid beta (1 to 42) oligomer-induced memory impairment model assessed as escape latency time at 10 mg/kg, po for 9 days by Morris water maze test (reference value: 49.3 to 74 secs); assay type: functional, organism-based
Rattus norvegicus [17] = experiment: Cognitive enhancing effect in Wistar rat model of amyloid beta (1 to 42) oligomer-induced memory impairment model assessed as increase in number of platform crossings at 10 mg/kg, po for 9 days by Morris water maze test; assay type: functional, organism-based
[18] = Cmax in Wistar rat at 10 mg/kg, po measured up to 0 to 72 hrs; assay type: ADME, organism-based; set-up: dose 10 mg/kg, route oral; conditions: in vivo
[19] = Tmax in Wistar rat at 10 mg/kg, po measured up to 0 to 72 hrs; assay type: ADME, organism-based; conditions: in vivo
[20] = AUC (0 to 24 hrs) in Wistar rat at 10 mg/kg, po; assay type: ADME, organism-based; set-up: dose 10 mg/kg, time < 24 hr, route oral; conditions: in vivo
[21] = MRT in Wistar rat at 10 mg/kg, po measured up to 0 to 72 hrs; assay type: ADME, organism-based; conditions: in vivo
[22] = Elimination half life in Wistar rat at 10 mg/kg, po measured up to 0 to 72 hrs; assay type: ADME, organism-based; conditions: in vivo, read-out: beta t1/2 (converted)
Rattus norvegicus [23] = experiment: Effect on total arm entries in scopolamine-induced spatial memory impairment in Wistar rat model of amnesia at 10 mg/kg, po administered once daily for 1 week followed by scopolamine challenge 30 mins prior to test by Y-maze test relative to control; assay type: functional, organism-based
[24] = Acute toxicity in Wistar rat at 100 to 500 mg/kg, po measured up to 14 days; assay type: organism-based; conditions: in vivo, 336 h

Cholinesterase, sequence (P06276 whole entry, the tested form may be a part): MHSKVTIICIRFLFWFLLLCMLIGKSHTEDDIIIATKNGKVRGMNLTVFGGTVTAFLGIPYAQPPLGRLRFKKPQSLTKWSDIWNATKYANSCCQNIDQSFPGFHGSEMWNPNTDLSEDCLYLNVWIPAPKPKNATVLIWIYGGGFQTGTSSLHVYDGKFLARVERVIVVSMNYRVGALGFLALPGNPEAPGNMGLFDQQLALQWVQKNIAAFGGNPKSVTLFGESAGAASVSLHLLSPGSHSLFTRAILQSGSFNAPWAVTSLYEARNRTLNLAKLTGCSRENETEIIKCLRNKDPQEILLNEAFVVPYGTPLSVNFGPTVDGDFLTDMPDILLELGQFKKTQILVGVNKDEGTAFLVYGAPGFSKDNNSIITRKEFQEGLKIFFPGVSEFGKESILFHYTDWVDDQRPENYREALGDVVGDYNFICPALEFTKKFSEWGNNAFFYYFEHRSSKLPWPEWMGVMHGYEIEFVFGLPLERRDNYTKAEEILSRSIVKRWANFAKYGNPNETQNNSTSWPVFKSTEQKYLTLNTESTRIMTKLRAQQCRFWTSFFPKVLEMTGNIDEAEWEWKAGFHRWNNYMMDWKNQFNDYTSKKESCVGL
T1 sequence (P22303 whole entry): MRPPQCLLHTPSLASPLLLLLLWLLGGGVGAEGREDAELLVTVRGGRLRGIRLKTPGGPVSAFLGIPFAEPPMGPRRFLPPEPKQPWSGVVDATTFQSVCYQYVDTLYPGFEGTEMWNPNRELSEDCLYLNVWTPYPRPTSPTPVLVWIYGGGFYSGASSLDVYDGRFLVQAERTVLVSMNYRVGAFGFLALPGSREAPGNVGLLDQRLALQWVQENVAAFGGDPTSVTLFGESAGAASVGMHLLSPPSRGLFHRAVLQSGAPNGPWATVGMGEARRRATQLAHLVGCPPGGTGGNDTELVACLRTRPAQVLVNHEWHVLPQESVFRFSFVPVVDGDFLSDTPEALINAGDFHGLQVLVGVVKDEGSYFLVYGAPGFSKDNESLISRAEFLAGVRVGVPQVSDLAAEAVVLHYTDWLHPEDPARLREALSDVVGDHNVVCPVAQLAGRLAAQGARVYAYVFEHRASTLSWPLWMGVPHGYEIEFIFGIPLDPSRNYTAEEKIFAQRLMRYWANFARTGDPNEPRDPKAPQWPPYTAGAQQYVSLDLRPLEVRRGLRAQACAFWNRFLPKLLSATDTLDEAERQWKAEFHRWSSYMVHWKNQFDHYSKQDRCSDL
Beta-secretase 1, sequence (P56817 whole entry, the tested form may be a part): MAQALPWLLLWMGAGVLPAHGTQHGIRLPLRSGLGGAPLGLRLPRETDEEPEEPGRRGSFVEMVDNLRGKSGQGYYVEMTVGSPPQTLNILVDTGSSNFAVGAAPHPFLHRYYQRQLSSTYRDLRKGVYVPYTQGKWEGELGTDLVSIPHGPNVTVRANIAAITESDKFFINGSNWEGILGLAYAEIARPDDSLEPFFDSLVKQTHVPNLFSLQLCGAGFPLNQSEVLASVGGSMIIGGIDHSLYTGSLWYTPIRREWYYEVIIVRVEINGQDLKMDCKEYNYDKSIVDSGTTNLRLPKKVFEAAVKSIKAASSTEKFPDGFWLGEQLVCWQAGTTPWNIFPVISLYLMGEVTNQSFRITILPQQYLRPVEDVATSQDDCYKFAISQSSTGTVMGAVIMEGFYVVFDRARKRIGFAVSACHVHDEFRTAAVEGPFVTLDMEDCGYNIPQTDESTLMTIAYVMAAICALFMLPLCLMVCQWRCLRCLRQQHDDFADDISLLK
Amyloid-beta precursor protein (Homo sapiens), sequence (P05067 whole entry): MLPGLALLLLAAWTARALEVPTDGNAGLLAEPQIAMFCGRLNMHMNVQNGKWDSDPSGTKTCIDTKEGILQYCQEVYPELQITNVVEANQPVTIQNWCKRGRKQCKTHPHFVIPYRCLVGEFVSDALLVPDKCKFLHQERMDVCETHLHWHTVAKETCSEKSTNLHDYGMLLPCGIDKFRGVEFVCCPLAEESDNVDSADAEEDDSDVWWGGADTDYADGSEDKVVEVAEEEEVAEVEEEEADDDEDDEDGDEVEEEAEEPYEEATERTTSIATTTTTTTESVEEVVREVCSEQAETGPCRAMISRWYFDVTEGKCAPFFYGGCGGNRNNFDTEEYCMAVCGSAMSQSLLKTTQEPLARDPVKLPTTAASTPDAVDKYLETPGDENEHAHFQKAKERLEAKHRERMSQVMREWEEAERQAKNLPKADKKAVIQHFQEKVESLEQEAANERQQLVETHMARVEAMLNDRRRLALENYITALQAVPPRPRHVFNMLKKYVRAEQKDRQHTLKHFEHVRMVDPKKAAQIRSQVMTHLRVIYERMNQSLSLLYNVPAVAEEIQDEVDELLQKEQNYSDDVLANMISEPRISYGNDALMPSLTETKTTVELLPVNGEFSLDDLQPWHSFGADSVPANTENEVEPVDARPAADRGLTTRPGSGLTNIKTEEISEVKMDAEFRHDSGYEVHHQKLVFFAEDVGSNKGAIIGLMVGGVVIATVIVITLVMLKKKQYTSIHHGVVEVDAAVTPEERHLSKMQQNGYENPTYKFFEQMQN

## C(=N\C1CCN(Cc2ccccc2)CC1)/c1ccccc1
Acetylcholinesterase [1]
  IC50: 2.1 µM
Cholinesterase
  IC50: > 30 µM
Beta-secretase 1
  IC50: 3.4 µM

## FC(F)(F)Oc1ccc(/C=N/C2CCN(Cc3ccccc3)CC2)cc1
Acetylcholinesterase [1]
  IC50: 1 µM
Cholinesterase
  IC50: 5.5 µM
Beta-secretase 1
  IC50: 1.8 µM

## Clc1ccc(/C=N/C2CCN(Cc3ccccc3)CC2)c(Cl)c1
Acetylcholinesterase [1]
  IC50: 1.3 µM
Cholinesterase
  IC50: 5.8 µM
Beta-secretase 1
  IC50: 3.9 µM

## Fc1ccc(/C=N/C2CCN(Cc3ccccc3)CC2)c(F)c1
Acetylcholinesterase [1]
  IC50: 1.3 µM
Cholinesterase
  IC50: > 30 µM
Beta-secretase 1
  IC50: 3.5 µM

## FC(F)(F)c1ccc(CNC2CCN(Cc3ccccc3)CC2)cc1
Rattus norvegicus [2]
  Activity: Active
Acetylcholinesterase [1]
  IC50: 0.11 µM
Cholinesterase
  IC50: 3 µM
Acetylcholinesterase [3]
  inhibition: Active
Acetylcholinesterase [4]
  Ki: 0.1 µM
Beta-secretase 1
  IC50: 0.22 µM
[5]
  Papp at 18 h, 25 ug/ml: 6.09 ×10⁻⁶ cm/s
[6]
  Activity: 44.5 to 104 nm
[7]
  Activity: 1.7 to 4.4 nm
[8]
  viability at 48 h, up to 80 µM: 84.6 to 99.2%
[9]
  Activity: Non-Toxic
Rattus norvegicus [10]
  Time: 20.3 to 74.5 s
Rattus norvegicus [11]
  Activity: Active
Rattus norvegicus [12]
  Activity: Active
Rattus norvegicus [13]
  Activity: Active
Rattus norvegicus [14]
  inhibition: Active
Rattus norvegicus [15]
  Activity: Active
Rattus norvegicus [16]
  Activity: Active
Rattus norvegicus [17]
  Activity: Active
[18]
  Cmax: 32.8 ng/mL
[19]
  Tmax: 5.3 h
[20]
  AUC(0-t) at 24 h: 633 ng·h/mL
[21]
  MRT: 45.7 h
[22]
  half-life: 29.2 h
Rattus norvegicus [23]
  Activity: inactive
[24]
  Activity: Non-Toxic

## Fc1ccc(CNC2CCN(Cc3ccccc3)CC2)cc1
Acetylcholinesterase [1]
  IC50: 1.2 µM
Cholinesterase
  IC50: 3.9 µM
Beta-secretase 1
  IC50: 0.55 µM

## COc1cccc(CNC2CCN(Cc3ccccc3)CC2)c1OC
Acetylcholinesterase [1]
  IC50: 2.2 µM
Cholinesterase
  IC50: 7.2 µM
Beta-secretase 1
  IC50: 5.3 µM

## Cc1ccc(CNC2CCN(Cc3ccccc3)CC2)cc1
Acetylcholinesterase [1]
  IC50: 3.7 µM
Cholinesterase
  IC50: > 30 µM
Beta-secretase 1
  IC50: 17 µM

## COc1cc(CNC2CCN(Cc3ccccc3)CC2)cc(OC)c1OC
Acetylcholinesterase [1]
  IC50: 2.2 µM
Cholinesterase
  IC50: 11 µM
Beta-secretase 1
  IC50: 13 µM

## c1ccc(CNC2CCN(Cc3ccccc3)CC2)cc1
Acetylcholinesterase [1]
  IC50: 1.7 µM
Cholinesterase
  IC50: 12 µM
Beta-secretase 1
  IC50: 2.9 µM

## Oc1ccccc1/C=N/C1CCN(Cc2ccccc2)CC1
Acetylcholinesterase [1]
  IC50: 2.8 µM
Cholinesterase
  IC50: 16 µM
Beta-secretase 1
  IC50: 2.7 µM

## Clc1ccc(/C=N/C2CCN(Cc3ccccc3)CC2)cc1
Acetylcholinesterase [1]
  IC50: 1.5 µM
Cholinesterase
  IC50: 4.6 µM
Beta-secretase 1
  IC50: 1.7 µM

## Oc1ccc(CNC2CCN(Cc3ccccc3)CC2)c(O)c1
Acetylcholinesterase [1]
  IC50: 2.3 µM
Cholinesterase
  IC50: 18 µM
Beta-secretase 1
  IC50: 5.9 µM

## Clc1ccc(CNC2CCN(Cc3ccccc3)CC2)cc1
Acetylcholinesterase [1]
  IC50: 0.85 µM
Cholinesterase
  IC50: 4 µM
Beta-secretase 1
  IC50: 0.66 µM

## Oc1ccc(/C=N/C2CCN(Cc3ccccc3)CC2)cc1
Acetylcholinesterase [1]
  IC50: 4.8 µM
Cholinesterase
  IC50: > 30 µM
Beta-secretase 1
  IC50: 12 µM

## Cc1ccc(/C=N/C2CCN(Cc3ccccc3)CC2)cc1
Acetylcholinesterase [1]
  IC50: 4.4 µM
Cholinesterase
  IC50: > 30 µM
Beta-secretase 1
  IC50: 19 µM

## COc1cccc(/C=N/C2CCN(Cc3ccccc3)CC2)c1OC
Acetylcholinesterase [1]
  IC50: > 15 µM
Cholinesterase
  IC50: > 30 µM
Beta-secretase 1
  IC50: 6.3 µM

## O=[N+]([O-])c1ccc(CNC2CCN(Cc3ccccc3)CC2)cc1
Rattus norvegicus [2]
  Activity: Active
Acetylcholinesterase [1]
  IC50: 0.72 µM
Cholinesterase
  IC50: 7.8 µM
Beta-secretase 1
  IC50: 0.43 µM
[5]
  Papp at 18 h, 25 ug/ml: 4.41 ×10⁻⁶ cm/s
[8]
  viability at 48 h, up to 80 µM: 76.3 to 96.3%
[9]
  Activity: Non-Toxic
Rattus norvegicus [11]
  Activity: Active
Rattus norvegicus [12]
  Activity: Active
Rattus norvegicus [14]
  inhibition: Active
Rattus norvegicus [15]
  Activity: Active
Rattus norvegicus [23]
  Activity: inactive
[24]
  Activity: Non-Toxic

## Cc1cccc(/C=N/C2CCN(Cc3ccccc3)CC2)c1
Acetylcholinesterase [1]
  IC50: > 15 µM
Cholinesterase
  IC50: > 30 µM
Beta-secretase 1
  IC50: 3.3 µM

## Cc1cccc(CNC2CCN(Cc3ccccc3)CC2)c1
Acetylcholinesterase [1]
  IC50: 4.1 µM
Cholinesterase
  IC50: > 30 µM
Beta-secretase 1
  IC50: 2.6 µM

## Oc1ccccc1CNC1CCN(Cc2ccccc2)CC1
Acetylcholinesterase [1]
  IC50: 2.4 µM
Cholinesterase
  IC50: 14 µM
Beta-secretase 1
  IC50: 2 µM

## Fc1ccc(/C=N/C2CCN(Cc3ccccc3)CC2)cc1
Acetylcholinesterase [1]
  IC50: 2.9 µM
Cholinesterase
  IC50: > 30 µM
Beta-secretase 1
  IC50: 1.5 µM

## Fc1ccc(CNC2CCN(Cc3ccccc3)CC2)c(F)c1
Acetylcholinesterase [1]
  IC50: 0.71 µM
Cholinesterase
  IC50: 3.1 µM
Beta-secretase 1
  IC50: 2.9 µM

## Oc1ccc(/C=N/C2CCN(Cc3ccccc3)CC2)c(O)c1
Acetylcholinesterase [1]
  IC50: 2.6 µM
Cholinesterase
  IC50: 19 µM
Beta-secretase 1
  IC50: 10 µM

## COc1cc(/C=N/C2CCN(Cc3ccccc3)CC2)cc(OC)c1OC
Acetylcholinesterase [1]
  IC50: > 15 µM
Cholinesterase
  IC50: 11 µM
Beta-secretase 1
  IC50: 14 µM

## O=[N+]([O-])c1ccc(/C=N/C2CCN(Cc3ccccc3)CC2)cc1
Acetylcholinesterase [1]
  IC50: 0.9 µM
Cholinesterase
  IC50: 7.3 µM
Beta-secretase 1
  IC50: 0.73 µM
[5]
  Papp at 18 h, 25 ug/ml: 4.99 ×10⁻⁶ cm/s

## FC(F)(F)c1ccc(/C=N/C2CCN(Cc3ccccc3)CC2)cc1
Acetylcholinesterase [1]
  IC50: 0.44 µM
Cholinesterase
  IC50: 3.9 µM
Beta-secretase 1
  IC50: 0.28 µM
[5]
  Papp at 18 h, 25 ug/ml: 6.24 ×10⁻⁶ cm/s

## FC(F)(F)Oc1ccc(CNC2CCN(Cc3ccccc3)CC2)cc1
Acetylcholinesterase [1]
  IC50: 0.59 µM
Cholinesterase
  IC50: 3.5 µM
Beta-secretase 1
  IC50: 1.4 µM

## Clc1ccc(CNC2CCN(Cc3ccccc3)CC2)c(Cl)c1
Acetylcholinesterase [1]
  IC50: 0.62 µM
Cholinesterase
  IC50: 3.5 µM
Beta-secretase 1
  IC50: 3 µM

## COc1cc2c(cc1OC)C(=O)C(CC1CCN(Cc3ccccc3)CC1)C2 (stereo unspecified) [DONEPEZIL]
Rattus norvegicus [10]
  Time: 22.5 to 72.5 s

## Oc1ccc(CNC2CCN(Cc3ccccc3)CC2)cc1
Acetylcholinesterase [1]
  IC50: 4 µM
Cholinesterase
  IC50: > 30 µM
Beta-secretase 1
  IC50: 9.9 µM
